Experimental data as given in patent publication US10383335B2, “Bicyclic pyrazole pesticides” (FMC Corporation, priority 2015, dated 2019).
Where two headings read alike, the source gives them in different places. One block for each compound: values may come before it.

What was measured:
[1] = tested on: Western Flower Thrips (Frankliniella occidentalis (Pergande)); assay: Test C: control of Western Flower Thrips on Soleil bean plant, spray, contact and/or systemic; assay type: in vivo; conditions: sprayed at 250 ppm, adult thrips, held 6 days
Method: (§1) Test compounds were formulated using a solution containing 10% acetone, 90% water and 300 ppm X-77® Spreader Lo-Foam Formula non-ionic surfactant containing alkylarylpolyoxyethylene, free fatty acids, glycols and isopropanol (Loveland Industries, Inc. Greeley, Colo., USA). The formulated compounds were applied in 1 mL of liquid through a SUJ2 atomizer nozzle with ⅛ JJ custom body (Spraying Systems Co. Wheaton, Ill., USA) positioned 1.27 cm (0.5 inches) above the top of each test unit. Test compounds were sprayed at the rates indicated, and each test was replicated three times.
For evaluating control of the Western Flower Thrips (Frankliniella occidentalis (Pergande)) through contact and/or systemic means, the test unit consisted of a small open container with a 5-7-day-old Soleil bean plant inside.
Test compounds were formulated and sprayed at 250 ppm. After spraying, the test units were allowed to dry for 1 hour, and then 22-27 adult thrips were added to each unit. A black, screened cap was placed on top, and the test units were held for 6 days at 25° C. and 45-55% relative humidity.

[2] = tested on: green peach aphid (Myzus persicae (Sulzer)); assay: Test A: control of green peach aphid on radish plant, spray, contact and/or systemic; assay type: in vivo; conditions: 144 h, assessed after 6 days; for mortality at 50 ppm: sprayed at 50 ppm; for mortality at 250 ppm: sprayed at 250 ppm
Method: as §1
For evaluating control of green peach aphid (Myzus persicae (Sulzer)) through contact and/or systemic means, the test unit consisted of a small open container with a 12-15-day-old radish plant inside. This was pre-infested by placing on a leaf of the test plant 30-40 aphids on a piece of leaf excised from a culture plant (cut-leaf method). The aphids moved onto the test plant as the leaf piece desiccated. After pre-infestation, the soil of the test unit was covered with a layer of sand.
Test compounds were formulated and sprayed at 250 and/or 50 ppm. After spraying of the formulated test compound, each test unit was allowed to dry for 1 hour and then a black, screened cap was placed on top. The test units were held for 6 days in a growth chamber at 19-21° C. and 50-70% relative humidity. Each test unit was then visually assessed for insect mortality.

[3] = tested on: cotton melon aphid (Aphis gossypii (Glover)); assay: Test B: control of cotton melon aphid on cotton plant, spray, contact and/or systemic; assay type: in vivo; conditions: 144 h
Method: as §1
For evaluating control of cotton melon aphid (Aphis gossypii (Glover)) through contact and/or systemic means, the test unit consisted of a small open container with a 6-7-day-old cotton plant inside. This was pre-infested with 30-40 insects on a piece of leaf according to the cut-leaf method, and the soil of the test unit was covered with a layer of sand.
Test compounds were formulated and sprayed at 250 and/or 50 ppm. After spraying, the test units were maintained in a growth chamber for 6 days at 19° C. and 70% relative humidity. Each test unit was then visually assessed for insect mortality.

[4] = tested on: sweetpotato whitefly (Bemisia tabaci (Gennadius)); assay: Test D: control of sweetpotato whitefly on cotton plant, spray, contact and/or systemic; assay type: in vivo; conditions: 312 h, sprayed at 250 ppm, cotton plant infested with eggs, assessed after 13 days
Method: as §1
For evaluating control of the sweetpotato whitefly (Bemisia tabaci (Gennadius)) through contact and/or systemic means, the test unit consisted of a small open container with a 12-14-day-old cotton plant inside. Prior to the spray application, both cotyledons were removed from the plant, leaving one true leaf for the assay. Adult whiteflies were allowed to lay eggs on the plant and then were removed from the test unit. Cotton plants infested with at least 15 eggs were submitted to the test for spraying.
Test compounds were formulated and sprayed at 250 and/or 50 ppm. After spraying, the test units were allowed to dry for 1 hour. […] Each test unit was then visually assessed for insect mortality.

[5] = sprayed at 250 ppm, cotton plant, assessed after 6 days, read-out: mortality

Compound: 2,4,6,7-tetrahydro-2-(3-pyridinyl)-N-(2,2,2-trifluoromethyl)-5H-pyrazolo[4,3-c]pyridine-5-carboxamide [Compound 15]
control efficacy (30% or less plant damage and/or 100% mortality) [1]: very good to excellent levels of control efficacy

Compound: COC(=O)NNC(=O)N1CCc2nn(-c3cccnc3)cc2C1 [Compound 10, 2,4,6,7-tetrahydro-2-(3-pyridinyl)-5H-pyrazolo[4,3-c]pyridine-5-carboxylic acid, 2-(methoxycarbonyl)hydrazide]
mortality at 50 ppm [2]: ≥ 80%
mortality at 250 ppm [2]: ≥ 80%
control efficacy (30% or less plant damage and/or 100% mortality) [1]: very good to excellent levels of control efficacy

Compound: COC(CN(C)C(=O)N1CCc2nn(-c3cccnc3)cc2C1)OC [Compound 14, 2,4,6,7-tetrahydro-N-methyl-2-(3-pyridinyl)-N-(2,2-dimethoxyethyl)-5H-pyrazolo[4,3-c]pyridine-5-carboxamide]
mortality at 50 ppm [2]: ≥ 80%
mortality at 250 ppm [2]: ≥ 80%

Compound: FC(F)(F)c1ccc(N2CCc3nn(-c4cccnc4)cc3C2)nc1 [Compound 19]
control efficacy (30% or less plant damage and/or 100% mortality) [1]: very good to excellent levels of control efficacy

Compound: FC(F)(F)c1cc(N2CCc3nn(-c4cccnc4)cc3C2)ccn1 [Compound 20, 4,5,6,7-tetrahydro-2-(3-pyridinyl)-5-[2-(trifluoromethyl)-4-pyridinyl]-2H-pyrazolo[4,3-c]pyridine]
mortality at 50 ppm [2]: ≥ 80%
mortality at 250 ppm [2]: ≥ 80%
control efficacy (30% or less plant damage and/or 100% mortality) [1]: very good to excellent levels of control efficacy

Compound: O=C(CCSCC(F)(F)F)N1CCc2nn(-c3cccnc3)cc2C1 [Compound 22, 1-[2,4,6,7-tetrahydro-2-(3-pyridinyl)-5H-pyrazolo[4,3-c]pyridin-5-yl]-3-[(2,2,2-trifluoroethyl)thio]-1-propanone]
mortality at 250 ppm [3, 5]: ≥ 80%
mortality at 250 ppm [2]: ≥ 80%
control efficacy (30% or less plant damage and/or 100% mortality) [1]: very good to excellent levels of control efficacy

Compound: O=C(CC[S+]([O-])CC(F)(F)F)N1CCc2nn(-c3cccnc3)cc2C1 (stereo not shown) [Compound 23, 1-[2,4,6,7-tetrahydro-2-(3-pyridinyl)-5H-pyrazolo[4,3-c]pyridin-5-yl]-3-[(2,2,2-trifluoroethyl)sulfinyl]-1-propanone]
mortality at 250 ppm [3, 5]: ≥ 80%
mortality at 250 ppm [2]: ≥ 80%
control efficacy (30% or less plant damage and/or 100% mortality) [1]: very good to excellent levels of control efficacy

melting point: 118.3 to 155.3 °C
Compound: O=C(NCC(F)(F)F)N1CCc2nn(-c3cccnc3)cc2C1 [Compound 28]

melting point: 212 to 224.2 °C
Compound: CNC(=O)N1CCc2nn(-c3cccnc3)cc2C1 [Compound 29]

melting point: 151.1 to 170.5 °C
Compound: CCNC(=O)N1CCc2nn(-c3cccnc3)cc2C1 [Compound 31]

Compound: COC1CC(NC(=O)N2CCc3nn(-c4cccnc4)cc3C2)C1 (stereo not shown) [Compound 47, 2,4,6,7-tetrahydro-N-(3-methoxycyclobutyl)-2-(3-pyridinyl)-5H-pyrazolo[4,3-c]pyridine-5-carboxamide]
mortality at 250 ppm [3, 5]: ≥ 80%

Compound: c1cncc(-n2cc3c(n2)CCN(c2cnccn2)C3)c1 [Compound 48, 4,5,6,7-tetrahydro-2-(3-pyridinyl)-5-(2-pyrazinyl)-2H-pyrazolo[4,3-c]pyridine]
mortality at 250 ppm [3, 5]: ≥ 80%

melting point: 117 to 125.1 °C
Compound: c1ccc(N2CCc3nn(-c4cccnc4)cc3C2)nc1 [Compound 49]

Compound: CN(C)C(=O)OCC(=O)N1CCc2nn(-c3cccnc3)cc2C1 [Compound 51, 2-oxo-2-[2,4,6,7-tetrahydro-2-(3-pyridinyl)-5H-pyrazolo[4,3-c]pyridin-5-yl]ethyl N,N-dimethylcarbamate]
mortality at 250 ppm [3]: ≥ 80%

Compound: c1cncc(N2CCc3nn(-c4cccnc4)cc3C2)c1 [Compound 52]
mortality at 250 ppm [4]: ≥ 50%
mortality at 250 ppm [2]: ≥ 80%

Compound: N#CCC(=O)N1CCc2nn(-c3cccnc3)cc2C1 [Compound 54, 2,4,6,7-tetrahydro-β-oxo-2-(3-pyridinyl)-5H-pyrazolo[4,3-c]pyridine-5-propanenitrile]
mortality at 250 ppm [4]: ≥ 50%
mortality at 250 ppm [3, 5]: ≥ 80%
mortality at 250 ppm [2]: ≥ 80%
